From publication PMC10487436, “Towards Anticancer and Antibacterial Agents: Design and Synthesis of 1,2,3-Triazol-quinobenzothiazine Derivatives” (International Journal of Molecular Sciences, 2023)

Columns and labels:
[1] = tested on: Staphylococcus aureus ATCC 29213; experiment: MBC, agar aliquot subculture method, SA; type: cell-based; details: ATCC29213
Description: (§1) For the above-mentioned strains/isolates, the agar aliquot subculture method was used as a test for bactericidal agents. After the MIC value determination, the inoculum was transferred to CaMH (Oxoid) for staphylococci, BHI (Oxoid) for enterococci, and Middlebrook 7H9 (Difco) for mycobacteria medium using a multipoint inoculator. As indicated above, the plates were incubated on a thermostat at 37 °C for the appropriate time for each micro-organism. The lowest concentration of test compound at which ≤5 colonies were obtained was then evaluated as MBC, corresponding to a 99.9% decrease in CFU relative to the original inoculum.

[2] = tested on: Enterococcus faecalis ATCC 29213; experiment: MIC, microtitration broth method, EF; type: cell-based; details: ATCC29213, 24 h at 37 °C
[3] = tested on: A549 (human lung carcinoma); experiment: WST-1 proliferation assay, A549; type: cell-based; details: Homo sapiens, A549, 72 h exposure
Description: (§2) Compounds were evaluated for their antiproliferative activity using three cultured cell lines: A549 (human lung carcinoma, ATCC, Manassas, VA, USA), SNB-19 (human glioblastoma, DSMZ, German Collection of Microorganisms and Cell Cultures), T-47D (human breast cancer, ATCC, Manassas, VA, USA), and NHDF (normal human dermal fibroblasts, ATCC, Manassas, VA, USA). The cultured cells were kept at 37 °C and 5% CO2. The cells were seeded (1 × 10^4 cells/well/100 μL DMEM supplemented with 10% FCS, streptomycin, and penicillin) using 96-well plates (corning). Cells were counted in a hemocytometer (Burker chamber) using a phase contrast Olympus IX50 microscope equipped with a Sony SSC-DC58 AP camera and an Olympus DP10 digital camera.
(§3) The antiproliferative effect of the compounds exerted on cancer and normal cells was determined using the Cell Proliferation Reagent WST-1 assay (Roche Molecular Biochemicals, Mannheim, Germany). This assay is based on a colorimetric method using the enzymatic ability of viable cells to cause the bright, red-colored stable tetrazolium monosodium salt [2-(4-iodophenyl)-3-(4-nitrophenyl)-5-(2,4-disulfophenyl)–2H-tetra-zolium] to transform into the dark, red-colored soluble formazan. […] An increase in the amount of formazan dye formed correlated with the number of metabolically active cells in the culture. The formazan dye produced by metabolically active cells was quantified by absorbance readings at appropriate wavelengths. The examined cells were exposed to the tested compounds (1 mM DMSO stock) for 72 h at various concentrations (0.1–100 μM). The control was performed in order to eliminate the DMSO effect at the concentration used. Cell cultures were incubated with WST-1 (10 μL) for 1 h. The absorbance of the samples was measured against a background control at 450 nm using a microplate reader with a reference wavelength at 600 nm. The obtained results are expressed as the means of at least two independent experiments performed in triplicate. The antiproliferative activity of the tested compounds was compared to that of cisplatinum. The values of IC50 (a concentration of a compound that is required for 50% inhibition) were calculated from the dose-response relationship with respect to control. The results were reported as the mean (±std) of three separate experiments.

[4] = tested on: Mycobacterium smegmatis ATCC 700084; experiment: MBC, agar aliquot subculture method, MS; type: cell-based; details: Mycolicibacterium smegmatis, ATCC700084
Description: as §1

[5] = tested on: Mycobacterium marinum CAMP 5644; experiment: MBC, agar aliquot subculture method, MM; type: cell-based; details: CAMP5644
Description: as §1

[6] = tested on: T-47D (human breast cancer); experiment: WST-1 proliferation assay, T47D; type: cell-based; details: Homo sapiens, T47D, 72 h exposure
Description: as §2, §3

[7] = tested on: vancomycin-resistant E. faecalis VRE 342B; experiment: MIC, microtitration broth method, VRE1; type: cell-based; details: Enterococcus faecalis, 24 h at 37 °C
Description: (§4) In vitro antibacterial activity of the synthesized compounds was evaluated against representatives of multidrug-resistant bacteria, three clinical isolates of methicillin-resistant S. aureus: clinical isolates of animal origin, MRSA 63718 (Department of Infectious Diseases and Microbiology, Faculty of Veterinary Medicine, University of Veterinary Sciences Brno, Czech Republic), carrying the mecA gene; and MRSA SA 630 and MRSA SA 3202 [52] (National Institute of Public Health, Prague, Czech Republic), both of human origin. […] Vancomycin- and methicillin-susceptible S. aureus ATCC 29213 and vancomycin-susceptible Enterococcus faecalis ATCC 29212, obtained from the American Type Culture Collection, were used as the reference and quality control strains. Three vanA gene-carrying vancomycin-resistant isolates of E. faecalis (VRE 342B, VRE 368, VRE 725B) were provided by Oravcova et al..
(§5) The minimum inhibitory concentrations (MICs) were evaluated by the microtitration broth method according to the CLSI, with some modifications. The compounds were dissolved in DMSO (Sigma, St. Louis, MO, USA) to obtain a concentration of […] and diluted in a microtitration plate in an appropriate medium, i.e., Cation Adjusted Mueller–Hinton Broth (CaMH, Oxoid, Basingstoke, UK) for staphylococci, and Brain Heart Infusion Broth (BHI, Oxoid) for enterococci, to reach the final concentration of 256–0.125 µg/mL. Microtiter plates were inoculated with test micro-organisms so that the final concentration of bacterial cells was 10^5. […] A drug-free control and a sterility control were included. The plates were incubated for 24 h at 37 °C for staphylococci and enterococci. […] The experiments were repeated three times.

[8] = tested on: methicillin-resistant S. aureus SA 3202; experiment: MBC, agar aliquot subculture method, MRSA1; type: cell-based; details: Staphylococcus aureus
Description: as §1

[9] = tested on: vancomycin-resistant E. faecalis VRE 725B; experiment: MIC, microtitration broth method, VRE3; type: cell-based; details: Enterococcus faecalis, 24 h at 37 °C
Description: as §4, §5

[10] = tested on: SNB-19 (human glioblastoma); experiment: WST-1 proliferation assay, SNB-19; type: cell-based; details: Homo sapiens, SNB-19, 72 h exposure
Description: as §2, §3

[11] = tested on: vancomycin-resistant E. faecalis VRE 368; experiment: MIC, microtitration broth method, VRE2; type: cell-based; details: Enterococcus faecalis, 24 h at 37 °C
Description: as §4, §5

[12] = tested on: NHDF (normal human dermal fibroblasts); experiment: WST-1 proliferation assay, NHDF; type: cell-based; details: Homo sapiens, NHDF, normal cells, 72 h exposure
Description: as §2, §3

[13] = tested on: methicillin-resistant S. aureus 63718; experiment: MIC, microtitration broth method, MRSA3; type: cell-based; details: Staphylococcus aureus; 24 h at 37 °C
Description: as §4, §5

[14] = tested on: methicillin-resistant S. aureus 63718; experiment: MBC, agar aliquot subculture method, MRSA3; type: cell-based; details: Staphylococcus aureus
Description: as §1

[15] = tested on: Mycobacterium smegmatis ATCC 700084; experiment: MIC, broth dilution micro-method, MS; type: cell-based; details: Mycolicibacterium smegmatis, ATCC700084, 72 h; 3 days at 37 °C
[16] = tested on: methicillin-resistant S. aureus SA 630; experiment: MIC, microtitration broth method, MRSA2; type: cell-based; details: Staphylococcus aureus; 24 h at 37 °C
Description: as §4, §5

[17] = tested on: Staphylococcus aureus ATCC 29213; experiment: MIC, microtitration broth method, SA; type: cell-based; details: ATCC29213, 24 h at 37 °C
Description: as §4, §5

[18] = tested on: Mycobacterium marinum CAMP 5644; experiment: MIC, broth dilution micro-method, MM; type: cell-based; details: CAMP5644, 504 h, 21 days at 28 °C
[19] = tested on: methicillin-resistant S. aureus SA 3202; experiment: MIC, microtitration broth method, MRSA1; type: cell-based; details: Staphylococcus aureus; 24 h at 37 °C
Description: as §4, §5

[20] = tested on: methicillin-resistant S. aureus SA 630; experiment: MBC, agar aliquot subculture method, MRSA2; type: cell-based; details: Staphylococcus aureus
Description: as §1

[21] = tested on: Mycobacterium smegmatis ATCC 700084; details: 3 days

SMILES | MBC [1] [µM] | MIC [2] [µM] | IC50 [3] [µM] | MBC [4] [µM] | MBC [5] [µM] | IC50 [6] [µM] | MIC [7] [µM] | MBC [8] [µM] | MIC [9] [µM] | IC50 [10] [µM] | MIC [11] [µM] | IC50 [12] [µM] | MIC [13] [µM] | MBC [14] [µM] | MIC [15] [µM] | MIC [16] [µM] | MIC [17] [µM] | MIC [18] [µM] | MIC [19] [µM] | MBC [20] [µM] | also measured
C[n+]1cc2c(c3ccccc31)Nc1ccc(OCc3cn(Cc4ccc([N+](=O)[O-])cc4)nn3)cc1S2 [2g, 5-Methyl-9-[1-(4-nitrobenzyl)-1H-1,2,3-triazol-4-yl]methoxy-12H-quino [3,4-b][1,4]benzothiazinium chloride] | 262 | 262 | 4.5 ± 0.3 | 65.5 | 131 | 11.8 ± 0.5 | 524 | 262 | 131 | 8.4 ± 0.7 | 262 | 27.6 ± 0.6 | 65.5 | 65.5 | 32.7 | 262 | 262 | 65.5 | 262 | – | –
C[n+]1cc2c(c3ccccc31)Nc1ccc(OCc3cn(Cc4ccccc4)nn3)cc1S2 [2d, 5-Methyl-9-(1-benzyl-1H-1,2,3-triazol-4-yl)methoxy-12H-quino [3,4-b][1,4]benzothiazinium chloride] | 65.5 | > 524 | 6.3 ± 0.4 | 32.7 | 32.7 | 8.6 ± 0.7 | > 524 | 131 | > 524 | 2.5 ± 0.1 | > 524 | > 100 | 65.5 | 65.5 | 32.7 | 131 | 131 | 32.7 | 131 | 131 | –
C=CCn1cc(COc2ccc3c(c2)Nc2c(c[n+](C)c4ccccc24)S3)nn1 [2b, 5-Methyl-10-(1-allyl-1H-1,2,3-triazol-4-yl)methoxy-12H-quino [3,4-b][1,4]benzothiazinium chloride] | – | > 524 | 1.8 ± 0.2 | 65.5 | 65.5 | 5.3 ± 0.6 | > 524 | – | 524 | 2.7 ± 0.4 | > 524 | > 100 | 262 | 262 | 65.5 | > 524 | 524 | 65.5 | > 524 | – | –
C[n+]1cc2c(c3ccccc31)Nc1cc(OCc3cn(-c4ccc(Cl)cc4)nn3)ccc1S2 [2n, 5-Methyl-10-(1-(4-chlorophenyl)-1H-1,2,3-triazol-4-yl)methoxy-12H-quino [3,4-b][1,4]benzothiazinium chloride] | – | > 524 | 14.3 ± 0.8 | 16.3 | 32.7 | 15.4 ± 1.1 | > 524 | – | > 524 | 42.9 ± 1.8 | > 524 | > 100 | 262 | 262 | 16.3 | > 524 | > 524 | 32.7 | > 524 | – | Conc.: lowest multiple of MBC with at least 70% inhibition of respiratory activity ([21]; MTT): 1× MIC (1× MBC); Conc.: lowest multiple of MIC with at least 70% inhibition of respiratory activity ([21]; MTT): 1× MIC (1× MBC); viability of M. smegmatis at MIC value ([21]; Mycobacterium smegmatis): less than 70%; M. smegmatis Respiration Inhibition ([21]; at the concentration (lowest multiple of MIC with at least 70% inhibition)): 85.9%
C[n+]1cc2c(c3ccccc31)Nc1cc(OCc3cn(Cc4ccccc4)nn3)ccc1S2 [2e, 5-Methyl-10-(1-benzyl-1H-1,2,3-triazol-4-yl)methoxy-12H-quino [3,4-b][1,4]benzothiazinium chloride] | 65.5 | 524 | 8.4 ± 0.6 | 32.7 | 32.7 | 12.5 ± 0.8 | 524 | 65.5 | 524 | 3.4 ± 0.3 | 524 | 56.6 ± 4.2 | 16.3 | 16.3 | 32.7 | 65.5 | 32.8 | 32.7 | 65.5 | 65.5 | –
